# Measurements reported in patent US20100062073A1, “PHARMACEUTICAL COMPOSITIONS COMPRISING NANOPARTICLES COMPRISING ENTERIC POLYMERS CASEIN” (priority 2006, published 2010).
# Assay: Solubility of drug in PBS
# Assay type: physicochemical
# Details: phosphate buffered saline (PBS), pH 6.5, aqueous buffer
# Protocol: At a pH of greater than about 5, the enteric polymer is aqueous soluble. By “aqueous soluble” is meant that when the polymer is administered alone at a solids concentration of 0.2 mg/mL to a phosphate buffered saline (PBS) solution consisting of an aqueous solution of 20 mM sodium phosphate (Na2HPO4), 47 mM potassium phosphate (KH2PO4), 87 mM NaCl, and 0.2 mM KCl, adjusted to pH 6.5 with NaOH, the polymer has a solubility of greater than 0.1 mg/mL.
# The Tm of Drug 1 is 10° C., and the Tg was determined by DSC analysis to be −16° C.
compound,measurement,value
"CCc1cc(Oc2cccc(N(Cc3cccc(OC(F)(F)C(F)F)c3)C[C@@H](O)C(F)(F)F)c2)ccc1Cl [Drug 1, (2R)-3-[[3-(4-chloro-3-ethylphenoxy)phenyl][[3-(1,1,2,2-tetrafluoroethoxy)phenyl]methyl]amino]-1,1,1-trifluoro-2-propanol]",solubility,< 0.1 µg/mL
